Experimental data taken from ChEMBL document CHEMBL1201862, “PubChem BioAssay data set” (2004).
Calls of active or inactive are those of the source.

Legend:
[1] = target: T1, Protein skinhead-1 (Caenorhabditis elegans, UniProt P34707); type: functional
T1 sequence (P34707 whole entry): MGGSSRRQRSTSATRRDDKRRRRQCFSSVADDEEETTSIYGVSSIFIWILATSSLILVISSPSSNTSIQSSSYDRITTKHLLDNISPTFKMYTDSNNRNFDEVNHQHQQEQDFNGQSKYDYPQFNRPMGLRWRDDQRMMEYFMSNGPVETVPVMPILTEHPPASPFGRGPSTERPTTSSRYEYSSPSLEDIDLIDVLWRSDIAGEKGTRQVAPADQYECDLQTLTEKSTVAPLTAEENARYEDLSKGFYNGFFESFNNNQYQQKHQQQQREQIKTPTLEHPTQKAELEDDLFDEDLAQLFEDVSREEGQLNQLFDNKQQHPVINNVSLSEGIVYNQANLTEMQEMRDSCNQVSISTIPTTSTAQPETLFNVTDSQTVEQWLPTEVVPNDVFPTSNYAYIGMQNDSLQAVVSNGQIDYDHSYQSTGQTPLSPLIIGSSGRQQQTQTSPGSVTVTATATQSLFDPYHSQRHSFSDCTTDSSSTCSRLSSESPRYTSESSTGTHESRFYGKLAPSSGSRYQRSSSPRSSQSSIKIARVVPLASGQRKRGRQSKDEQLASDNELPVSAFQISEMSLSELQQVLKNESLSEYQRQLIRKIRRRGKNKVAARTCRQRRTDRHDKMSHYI

[2] = cells; type: functional
[3] = target: T2, Polyadenylate-binding protein 1 (Homo sapiens, UniProt P11940); assay: MLLE domain peptide-binding blockers, IC50 – biochemical, fluorescence polarization, FITC-PAM2 peptide, dose response (AID 602259); type: functional; conditions: read-out: IC50_Mean
[4] = target: T2, Polyadenylate-binding protein 1; assay: MLLE binding blockers, Cy5 peptide tracer – biochemical, fluorescence polarization, Cy5-PAM2 peptide, secondary, miRNA deadenylation inhibitor project, dose response (AID 602260); type: functional; conditions: read-out: IC50_Mean
[5] = test system: H9c2; assay: cells; type: functional, cell-based; conditions: Rattus norvegicus, H9c2, Myocardium;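 further: confirmatory concentration-response retest of ultra-high-throughput screening hits for modulation of myocardial damage; cell death induced by hydrogen peroxide oxidative stress; compound pretreatment for 60 min then peroxide exposure for 2 h; potency is for protecting the cells against peroxide damage rather than for killing them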
[6] = target: T3, Corticotropin-releasing factor receptor 2/Corticotropin-releasing factor-binding protein (Homo sapiens, UniProt P24387+Q13324); assay: Dose Response confirmation of uHTS hits for small molecule antagonists of the CRF-binding protein and CRF-R2 receptor complex.; type: functional; conditions: read-out: IC50_Mean
T3 sequence (Q13324 whole entry): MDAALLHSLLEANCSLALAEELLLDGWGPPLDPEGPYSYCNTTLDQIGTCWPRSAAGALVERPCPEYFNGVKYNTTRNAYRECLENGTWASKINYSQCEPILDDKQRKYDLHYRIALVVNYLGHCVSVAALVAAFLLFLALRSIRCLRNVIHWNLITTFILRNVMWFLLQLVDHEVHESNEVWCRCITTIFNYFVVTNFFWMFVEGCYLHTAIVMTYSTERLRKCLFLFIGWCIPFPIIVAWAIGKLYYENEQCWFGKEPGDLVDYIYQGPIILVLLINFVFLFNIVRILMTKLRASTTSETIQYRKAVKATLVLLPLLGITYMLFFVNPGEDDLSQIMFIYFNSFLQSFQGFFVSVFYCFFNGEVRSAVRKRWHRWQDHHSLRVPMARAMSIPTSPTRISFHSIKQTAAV
T3 sequence (P24387 whole entry): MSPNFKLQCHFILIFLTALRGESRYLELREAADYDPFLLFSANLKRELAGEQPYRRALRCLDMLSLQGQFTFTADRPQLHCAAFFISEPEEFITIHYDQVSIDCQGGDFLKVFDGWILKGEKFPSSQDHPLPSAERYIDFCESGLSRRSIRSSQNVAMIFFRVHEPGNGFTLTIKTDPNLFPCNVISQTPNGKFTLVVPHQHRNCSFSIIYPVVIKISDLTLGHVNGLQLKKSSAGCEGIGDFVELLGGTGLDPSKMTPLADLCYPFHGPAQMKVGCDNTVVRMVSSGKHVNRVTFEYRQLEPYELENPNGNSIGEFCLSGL

[7] = target: T3, Corticotropin-releasing factor receptor 2/Corticotropin-releasing factor-binding protein; assay: activators of CRF receptor 2 with binding protein – uHTS hits, confirmation (AID 602473); type: functional; conditions: read-out: EC50_Mean
[8] = target: T4, Leucine aminopeptidase (Plasmodium falciparum 3D7, UniProt Q8IL11); assay: P. falciparum M17LAP inhibitors, primary screen, biochemical, fluorogenic H-Leu-NHMec substrate, 1536-well (AID 1619); type: functional
T4 sequence (Q8IL11 whole entry): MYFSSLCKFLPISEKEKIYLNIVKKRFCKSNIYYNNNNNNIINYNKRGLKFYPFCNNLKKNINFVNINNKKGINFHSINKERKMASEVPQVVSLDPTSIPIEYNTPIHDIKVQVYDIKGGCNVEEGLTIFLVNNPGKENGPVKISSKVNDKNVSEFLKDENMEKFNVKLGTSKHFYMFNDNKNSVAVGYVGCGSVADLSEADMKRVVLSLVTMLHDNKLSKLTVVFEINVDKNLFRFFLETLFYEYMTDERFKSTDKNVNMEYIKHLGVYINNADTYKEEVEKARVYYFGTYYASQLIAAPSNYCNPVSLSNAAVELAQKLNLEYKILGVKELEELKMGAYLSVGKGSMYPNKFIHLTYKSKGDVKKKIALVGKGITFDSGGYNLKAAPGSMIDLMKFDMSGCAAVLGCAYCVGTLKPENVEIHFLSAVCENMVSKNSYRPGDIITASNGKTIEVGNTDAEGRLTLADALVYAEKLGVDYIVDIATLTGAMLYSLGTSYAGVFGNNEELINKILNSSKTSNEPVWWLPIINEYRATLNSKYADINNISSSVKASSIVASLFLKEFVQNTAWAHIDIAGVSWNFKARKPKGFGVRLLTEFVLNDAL

[9] = target: FAD-linked sulfhydryl oxidase ALR (Homo sapiens, UniProt P55789); assay: ALR-catalysed DTT oxidation blockers – biochemical, H2O2 detection, luminescence, cherry-pick, dose response (AID 493248)
[10] = Luminescence Cell-Based Dose Confirmation HTS to Identify Activators of 5'UTR Stem-Loop Driven Alpha-Synuclein mRNA Translation in H4 Neuroglioblastoma Cells. [Related pubchem assays: 1829 (Project Summary), 1814 (Primary HTS)]; type: functional
[11] = Luminescence Cell-Based Dose Response HTS to Identify Activators of Luciferase Translation or Activity in H4 […] Cells. [Related pubchem assays: 1829 (Project Summary), 1814 (Primary HTS)]; type: functional
[12] = test system: H4; assay: Luminescence Cell-Based Dose Response HTS to Identify Activators of 5'UTR Stem-Loop Driven Prion Protein mRNA Translation in H4 Neuroglioblastoma Cells. [Related pubchem assays: 1829 (Project Summary), 1814 (Primary HTS)]; type: functional; conditions: Homo sapiens
[13] = target: T5, Estrogen receptor (Homo sapiens, UniProt P03372);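 further: potency for inhibiting coactivator peptide recruitment to the receptor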
T5 sequence (P03372 whole entry): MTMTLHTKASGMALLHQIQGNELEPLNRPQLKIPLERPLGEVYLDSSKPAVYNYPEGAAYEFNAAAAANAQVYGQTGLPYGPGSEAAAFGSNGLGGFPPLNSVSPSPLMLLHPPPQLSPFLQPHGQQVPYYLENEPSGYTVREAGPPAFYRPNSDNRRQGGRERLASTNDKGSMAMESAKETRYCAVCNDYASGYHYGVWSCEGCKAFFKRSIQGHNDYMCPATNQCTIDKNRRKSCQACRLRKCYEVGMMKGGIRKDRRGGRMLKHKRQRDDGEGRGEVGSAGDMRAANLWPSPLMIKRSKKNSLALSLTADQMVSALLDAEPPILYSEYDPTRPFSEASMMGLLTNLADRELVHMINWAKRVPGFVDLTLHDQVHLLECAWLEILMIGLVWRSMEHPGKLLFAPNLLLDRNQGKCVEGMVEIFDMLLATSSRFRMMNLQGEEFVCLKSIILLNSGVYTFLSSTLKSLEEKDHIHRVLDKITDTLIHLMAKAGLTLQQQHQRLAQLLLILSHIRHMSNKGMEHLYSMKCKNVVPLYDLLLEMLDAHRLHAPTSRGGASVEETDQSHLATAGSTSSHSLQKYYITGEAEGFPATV

[14] = target: Cytochrome P450 2D6 (Homo sapiens, UniProt P10635);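 further: CYP2D6 member of a cytochrome P450 panel assay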
[15] = test system: Vero; assay: cells; type: functional; conditions: Chlorocebus sabaeus
[16] = target: T6, Fatty acid synthase (Homo sapiens, UniProt P49327); assay: inhibition of human FAS-TE enzyme activity – biochemical, endpoint fluorescence intensity, uHTS hits, dose response (AID 624327); type: functional;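 further: fluorescence from hydrolysis of an O-methyl fluorescein acyl ester substrate by the enzyme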
[17] = target: T6, Fatty acid synthase; assay: inhibition of human FAS-TE enzyme activity – biochemical, kinetic fluorescence intensity, dose response (AID 624326); type: functional;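 further: rate of fluorescence rise from hydrolysis of a fluorogenic O-methyl fluorescein ester substrate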
[18] = intracellular Trypanosoma cruzi inhibitors in host cells – cell-based, plate reader, cherry-pick samples, set 3, dose response (AID 651818); type: functional;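 further: compounds incubated with infected cells for about four days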

T2 sequence (P11940 whole entry, the tested form may be a part): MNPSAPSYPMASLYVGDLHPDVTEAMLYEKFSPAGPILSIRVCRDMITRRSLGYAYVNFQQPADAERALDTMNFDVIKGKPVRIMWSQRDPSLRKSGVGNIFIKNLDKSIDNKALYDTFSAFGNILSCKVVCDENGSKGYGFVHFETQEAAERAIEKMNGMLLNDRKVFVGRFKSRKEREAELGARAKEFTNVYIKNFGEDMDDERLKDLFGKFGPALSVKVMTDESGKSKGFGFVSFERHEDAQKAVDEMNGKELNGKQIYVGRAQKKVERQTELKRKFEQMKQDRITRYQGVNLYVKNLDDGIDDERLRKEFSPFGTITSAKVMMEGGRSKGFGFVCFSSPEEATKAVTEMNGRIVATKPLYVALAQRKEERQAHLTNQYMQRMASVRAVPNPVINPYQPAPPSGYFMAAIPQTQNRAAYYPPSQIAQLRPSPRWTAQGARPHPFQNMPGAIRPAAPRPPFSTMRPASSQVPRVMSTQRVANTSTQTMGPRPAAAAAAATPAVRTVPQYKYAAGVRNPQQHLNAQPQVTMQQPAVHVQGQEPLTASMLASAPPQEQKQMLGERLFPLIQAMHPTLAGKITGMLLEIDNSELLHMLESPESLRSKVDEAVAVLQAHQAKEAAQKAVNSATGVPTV
T6 sequence (P49327 whole entry): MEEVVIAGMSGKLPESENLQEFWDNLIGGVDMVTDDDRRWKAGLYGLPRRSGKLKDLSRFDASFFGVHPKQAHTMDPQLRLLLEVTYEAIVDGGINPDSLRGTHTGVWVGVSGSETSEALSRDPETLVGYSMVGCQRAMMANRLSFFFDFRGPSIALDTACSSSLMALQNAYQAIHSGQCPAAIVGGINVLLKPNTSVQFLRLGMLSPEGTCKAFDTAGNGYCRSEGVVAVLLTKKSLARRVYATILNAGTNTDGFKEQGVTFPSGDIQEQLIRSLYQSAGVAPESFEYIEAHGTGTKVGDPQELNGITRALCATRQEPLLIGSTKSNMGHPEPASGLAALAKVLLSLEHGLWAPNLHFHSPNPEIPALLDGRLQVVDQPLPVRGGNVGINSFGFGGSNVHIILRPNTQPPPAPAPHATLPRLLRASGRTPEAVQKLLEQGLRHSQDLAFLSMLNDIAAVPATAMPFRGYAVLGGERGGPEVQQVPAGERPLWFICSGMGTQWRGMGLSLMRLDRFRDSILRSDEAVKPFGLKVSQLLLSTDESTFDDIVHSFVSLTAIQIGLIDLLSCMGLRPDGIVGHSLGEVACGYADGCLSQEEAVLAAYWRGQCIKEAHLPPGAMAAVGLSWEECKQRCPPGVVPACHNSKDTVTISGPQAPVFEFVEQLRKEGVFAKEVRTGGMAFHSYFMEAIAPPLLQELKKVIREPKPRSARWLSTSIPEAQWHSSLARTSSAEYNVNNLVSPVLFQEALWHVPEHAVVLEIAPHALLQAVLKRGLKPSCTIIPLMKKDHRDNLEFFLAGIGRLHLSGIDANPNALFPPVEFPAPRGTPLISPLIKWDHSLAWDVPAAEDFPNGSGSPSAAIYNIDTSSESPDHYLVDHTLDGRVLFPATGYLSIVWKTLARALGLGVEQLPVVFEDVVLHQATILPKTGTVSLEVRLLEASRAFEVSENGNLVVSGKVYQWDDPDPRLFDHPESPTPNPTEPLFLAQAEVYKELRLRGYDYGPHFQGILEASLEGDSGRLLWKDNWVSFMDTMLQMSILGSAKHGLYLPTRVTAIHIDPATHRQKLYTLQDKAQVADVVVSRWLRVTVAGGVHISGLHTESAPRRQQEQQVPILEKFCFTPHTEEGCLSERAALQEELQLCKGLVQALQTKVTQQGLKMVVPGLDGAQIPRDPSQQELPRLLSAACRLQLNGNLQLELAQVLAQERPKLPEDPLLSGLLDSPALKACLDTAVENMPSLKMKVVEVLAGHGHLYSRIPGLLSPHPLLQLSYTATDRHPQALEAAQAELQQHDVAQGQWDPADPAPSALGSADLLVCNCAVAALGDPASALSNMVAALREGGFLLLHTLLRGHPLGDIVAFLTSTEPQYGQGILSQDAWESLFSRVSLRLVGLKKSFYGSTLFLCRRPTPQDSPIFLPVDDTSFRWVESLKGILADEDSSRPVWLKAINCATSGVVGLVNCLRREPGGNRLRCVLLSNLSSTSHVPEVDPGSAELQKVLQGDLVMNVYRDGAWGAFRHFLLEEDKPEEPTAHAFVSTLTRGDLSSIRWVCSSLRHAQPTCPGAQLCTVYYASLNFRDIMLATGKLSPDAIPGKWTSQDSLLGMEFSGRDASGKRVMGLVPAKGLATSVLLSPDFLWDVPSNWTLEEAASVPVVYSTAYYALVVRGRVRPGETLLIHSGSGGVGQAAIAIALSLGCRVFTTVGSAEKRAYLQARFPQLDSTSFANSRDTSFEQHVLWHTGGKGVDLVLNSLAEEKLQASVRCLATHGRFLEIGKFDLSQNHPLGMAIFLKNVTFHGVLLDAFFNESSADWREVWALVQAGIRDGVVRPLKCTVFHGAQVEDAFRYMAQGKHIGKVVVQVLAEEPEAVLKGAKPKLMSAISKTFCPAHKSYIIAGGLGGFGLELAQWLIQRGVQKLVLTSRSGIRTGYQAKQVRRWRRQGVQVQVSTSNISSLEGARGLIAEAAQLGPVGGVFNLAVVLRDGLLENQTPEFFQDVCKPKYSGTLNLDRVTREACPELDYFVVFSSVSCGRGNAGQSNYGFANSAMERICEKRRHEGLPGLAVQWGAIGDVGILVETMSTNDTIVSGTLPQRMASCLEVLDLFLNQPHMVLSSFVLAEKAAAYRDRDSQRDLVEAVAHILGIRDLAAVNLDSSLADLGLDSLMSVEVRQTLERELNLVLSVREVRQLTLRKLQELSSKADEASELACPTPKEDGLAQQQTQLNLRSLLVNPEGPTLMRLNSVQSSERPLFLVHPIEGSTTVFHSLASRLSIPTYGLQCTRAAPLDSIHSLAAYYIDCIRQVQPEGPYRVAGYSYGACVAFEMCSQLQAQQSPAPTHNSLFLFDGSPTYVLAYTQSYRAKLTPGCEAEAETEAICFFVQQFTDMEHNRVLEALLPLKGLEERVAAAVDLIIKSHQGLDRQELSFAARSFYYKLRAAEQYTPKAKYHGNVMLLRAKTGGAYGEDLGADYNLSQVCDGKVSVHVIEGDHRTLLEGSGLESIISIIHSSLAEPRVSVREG
Sequence of Cytochrome P450 2D6 (P10635 whole entry): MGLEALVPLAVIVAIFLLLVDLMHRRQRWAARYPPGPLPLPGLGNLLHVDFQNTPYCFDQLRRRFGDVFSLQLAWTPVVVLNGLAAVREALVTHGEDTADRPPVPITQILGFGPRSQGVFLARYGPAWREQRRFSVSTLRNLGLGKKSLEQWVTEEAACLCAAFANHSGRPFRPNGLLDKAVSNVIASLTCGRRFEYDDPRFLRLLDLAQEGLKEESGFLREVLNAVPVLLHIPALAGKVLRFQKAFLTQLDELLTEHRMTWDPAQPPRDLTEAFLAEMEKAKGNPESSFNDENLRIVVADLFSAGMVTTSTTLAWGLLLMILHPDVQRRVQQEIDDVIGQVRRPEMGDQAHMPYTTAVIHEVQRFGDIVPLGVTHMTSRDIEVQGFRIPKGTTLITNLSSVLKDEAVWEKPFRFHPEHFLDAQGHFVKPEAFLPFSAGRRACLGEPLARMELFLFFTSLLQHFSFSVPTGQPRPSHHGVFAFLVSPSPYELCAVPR
Sequence of FAD-linked sulfhydryl oxidase ALR (P55789 whole entry): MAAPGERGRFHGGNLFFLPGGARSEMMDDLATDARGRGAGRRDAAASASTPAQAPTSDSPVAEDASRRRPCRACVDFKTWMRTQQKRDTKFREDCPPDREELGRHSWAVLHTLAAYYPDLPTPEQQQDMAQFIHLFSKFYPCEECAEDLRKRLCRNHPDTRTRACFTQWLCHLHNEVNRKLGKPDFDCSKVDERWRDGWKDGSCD

## O=C(Nc1nccs1)c1ccc2ccccc2n1
[1]
  IC50: 21.3 µM (active)

## COc1ccc(C(=O)COC(=O)c2ccc(Cl)nc2)c(OC)c1
[2]
  IC50: 13.2 µM (active)

## CCOC(=O)c1sc(NC(=S)NC(=O)c2ccco2)nc1C
[3]
  IC50: > 66 µM (inactive)
[4]
  IC50: > 66 µM (inactive)

## O=C1c2ccccc2C(=O)N1CCCCSc1nc2ccccc2c(=O)n1CCCN1CCOCC1
[5]
  IC50: 10.1 µM (active)

## COc1cc2nc(SCc3c(C)noc3C)n(CCC3=CCCCC3)c(=O)c2cc1OC
[6]
  IC50: > 47.1 µM (inactive)
[7]
  EC50: > 53 µM (inactive)

## Cc1ccc(NC(S)=Nc2ccc(F)cc2)cc1
[3]
  IC50: > 66 µM (inactive)
[4]
  IC50: > 66 µM (inactive)

## CCOC(=O)c1cccc(NC(=O)CN2C(=O)C3C4C=CC(C4)C3C2=O)c1 (centres undefined)
[8]
  IC50: 14.2 µM (active)

## Cc1cc(N2CCCCC2)ccc1C=C1C(=O)N(C)C(=S)N(C)C1=O
[8]
  IC50: 40.9 µM (active)

## O=C(Nc1ccccc1C(=O)Nc1ccccc1C(=O)NCc1ccco1)c1ccco1
[5]
  IC50: > 79 µM (inactive)

## Cc1cccnc1NC(=S)NC(=O)c1oc2ccccc2c1C
[3]
  IC50: > 66 µM (inactive)
[4]
  IC50: > 66 µM (inactive)

## O=C1C(C2=NC(C(=O)O)C3C(=O)N(c4ccccc4)C(=O)C23)=C(O)c2ccccc21 (centres undefined)
[8]
  IC50: 68 µM (active)

## CCOC(=O)c1c(C)oc2ccc(NS(=O)(=O)c3ccc(C(=O)O)cc3)cc12
[8]
  IC50: 43.9 µM (active)

## O=C(Nc1ccc2snnc2c1)N1CCSCC1
[1]
  IC50: > 100 µM (inactive)

## O=C(Nc1cccc(C(=O)O)c1)/C(=C\c1ccc2c(c1)OCO2)NC(=O)c1ccc(Br)o1
[8]
  IC50: 65 µM (active)

## COC(=O)C(CC(=O)Nc1cc(C)ccc1C)Nc1ccccc1OC (centres undefined)
[6]
  IC50: > 47.1 µM (inactive)
[7]
  EC50: > 53 µM (inactive)
[9]
  AC50: 13.1 µM (active)

## Cc1cccc(NC(=O)C(NS(=O)(=O)c2ccc3c(c2)CCC(=O)N3)c2ccccc2)n1 (centres undefined)
[3]
  IC50: > 66 µM (inactive)
[4]
  IC50: > 66 µM (inactive)

## N#CCCn1c(SCC(=O)c2c[nH]c3ccccc23)nc2ccccc21
[5]
  IC50: > 79 µM (inactive)

## COc1cc(/C=C2/C(=N)N3C=CSC3=NC2=O)ccc1OCCCOc1ccccc1C
[10]
  EC50: 5.59 µM (active)
[11]
  EC50: 58.3 µM (active)
[12]
  EC50: 70.8 µM (active)
[13]
  IC50: > 50 µM (not active)

## Cc1cc(C(=O)NC(=S)Nc2cccc(NC(=O)C(C)C)c2)ccc1[N+](=O)[O-]
[3]
  IC50: > 66 µM (inactive)
[4]
  IC50: > 66 µM (inactive)

## Cc1nn(-c2ccccc2)c(NC(=O)c2cccs2)c(-c2ccccc2Cl)c1=O
[6]
  IC50: > 47.1 µM (inactive)
[7]
  EC50: > 53 µM (inactive)

## Cc1nn(-c2ccccc2)c2sc(C(=O)OCN3C(=O)c4ccccc4C3=O)cc12
[13]
  IC50: 9.75 µM (active)

## CC1CCCN(C(=O)COC(=O)c2n[nH]c3ccccc23)C1 (centres undefined)
[13]
  IC50: > 50 µM (not active)

## CCc1nnc(NC(=O)C(C)Sc2ccccc2)s1 (centres undefined)
[8]
  IC50: 3.57 µM (active)

## Cc1sc(NC(=O)c2ccco2)c(C(c2cccnc2)N2CCCC2)c1C (centres undefined)
[1]
  IC50: > 100 µM (inactive)
[14]
  AC50: 10 µM (inconclusive)

## CC1CCN(C(=O)C2CCN(S(=O)(=O)c3cccs3)CC2)CC1
[6]
  IC50: > 47.1 µM (inactive)
[7]
  EC50: > 53 µM (inactive)

## Cc1cc(C)nc(NN=CC2=C(N3CCOCC3)/C(=C/c3ccc(Cl)cc3)CC2)n1
[15]
  CC50: > 25 µM (active)

## CCCCCCCCNS(=O)(=O)CCNCc1ccc(OC)cc1
[6]
  IC50: > 47.1 µM (inactive)
[7]
  EC50: > 53 µM (inactive)

## CN(C)C(=O)CN1C(=O)NC2(CCc3ccccc32)C1=O (centres undefined)
[1]
  IC50: > 100 µM (inactive)

## CCOc1ccc(N(CC(=O)N/N=C/c2ccccn2)S(=O)(=O)c2ccc(Cl)cc2)cc1
[5]
  IC50: > 79 µM (inactive)
[16]
  IC50: 10.6 µM (active)
[17]
  IC50: 5.79 µM (active)

## CCCCCNC1=CC(=O)CC(c2ccccc2)C1 (centres undefined)
[6]
  IC50: > 47.1 µM (inactive)
[7]
  EC50: > 53 µM (inactive)

## COc1ccc(NC(=S)N/N=C/c2ccc(F)cc2)cc1OC
[3]
  IC50: > 66 µM (inactive)
[4]
  IC50: > 66 µM (inactive)

## C[C@@H]1CCCCO[C@H](CN(C)C(=O)Nc2ccc(C(F)(F)F)cc2)[C@@H](C)CN([C@H](C)CO)C(=O)c2cc(NC(=O)Cc3ccccc3)ccc2O1
[18]
  AC50: 1.78 µM (active)

## C[C@@H]1CN([C@@H](C)CO)C(=O)Cc2cc(NC(=O)Nc3ccc4c(c3)OCO4)ccc2O[C@@H]1CN(C)Cc1ccc(C(=O)Nc2ccccc2N)cc1
[18]
  AC50: 2.38 µM (active)

## CCOc1cc(/C=N/NC(=O)c2ccccn2)ccc1OC(=O)c1cccs1
[2]
  IC50: 26.5 µM (active)

## N#Cc1c(-c2ccccc2)cc(-c2ccco2)c(C#N)c1N
[13]
  IC50: 33.5 µM (not active)
